14 molecules from patent US8835429B2, “Pyrimidine compounds, their use as mTOR kinase and Pl3 kinase inhibitors, and their syntheses” (Wyeth LLC, priority 2009, dated 2014) can be followed below.

For orientation: IC50 means the concentration at which inhibition is half-maximal.

SMILES strings stand for the structures.

One assay has as its system LNCap. Briefly: In vitro cell growth assay (MTS), LNCap. It counts as cell-based. Conditions: LNCaP, 72 h, human prostate line, three days after drug treatment.
The target of a further assay is PI3K-alpha (Homo sapiens, UniProt P42336). As to the kind of experiment: PI3K-alpha fluorescence polarization assay. As to conditions: 20 μM PIP2, 25 μM ATP; read-out: PI3Kα IC50. It counts as biochemical. The procedure, abridged:
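PIP2 (diC8) and ATP substrate with PI3K in 20 mM HEPES pH 7.5, 2 mM MgCl2, 0.05% CHAPS, 0.01% βME; 1% DMSO final; 30–60 min reaction. Stopped with EDTA plus GST-GRP (70 nM) and TAMRA probe (10 nM); FP (mP) read after 30–90 min, with no-enzyme controls.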
In general terms: Polarisation of emitted light reports the rotation of a fluorescent probe.

For a further assay, the target named is mTOR (Homo sapiens, UniProt P42345). Briefly: mTOR enzyme assay (DELFIA, purified FLAG-TOR, His6-S6K substrate). Also on record: FLAG. It counts as biochemical. As to conditions: 100 μM ATP, 2 hours.
In another assay the test system is MDA468. As to the kind of experiment: In vitro cell growth assay (MTS), MDA468. It counts as cell-based. Conditions: 72 h, human breast line MDA468, three days after drug treatment, read-out: MDA IC50.
For a further assay, the target named is PI3K-gamma (Homo sapiens, UniProt P48736). Briefly: PI3K-gamma fluorescence polarization assay. As to conditions: 20 μM PIP2, 25 μM ATP; read-out: PI3Kγ IC50. It counts as biochemical. As to the method:
The reaction buffer was 20 mM HEPES, pH 7.5, 2 mM MgCl2, 0.05% CHAPS; and 0.01% βME (added fresh). The stop/detection buffer was 100 mM HEPES, pH 7.5, 4 mM EDTA, 0.05% CHAPS; ATP 20 mM in water; PIP2 (diC8, Echelon, Salt Lake City Utah cat #P-4508) 1 mM in water (MW=856.5). The GST-GRP was 1.75 mg/mL or 1.4 mg/mL in 10% glycerol. The red detector (TAMRA) was 2.5 μM. Nunc 384-well black polypropylene fluorescent plates were used for PI3K assays.
The assay is run by placing 5 μL of diluted enzyme per well, then 5 μL of diluted compound (or 9.5 μL enzyme then 0.5 μL compound in DMSO) is added and mixed. Then, 10 μL substrate is added to start the reaction. The samples are incubated 30-60 minutes, then the reaction is stopped by adding 20 μL stop/detector mix. PI3K is diluted with reaction buffer (e.g., 5 μL or 7.5 μL PI3K into 620 μL reaction buffer), and 5 μL of diluted enzyme is used per well. A 5 μL portion of reaction buffer or of drug diluted in buffer (e.g., 4 μL/100 so final DMSO is 1% in reaction) is added to each. Pipetting up and down mixes the samples. Alternatively, the enzyme can be diluted to 1215 μL. In this case 9.8 μL is added per well and 0.2 μL compound is added in DMSO.
To prepare 1 mL of substrate solution, 955 μL reaction buffer, 40 μL PIP2, and 2.5 μL ATP are mixed. 10 μL of substrate is added to each well to start the reaction. […] The stop/detector mix is prepared by mixing 4 μL red detector and 1.6 μL or 2.0 μL GST-GRP with 1 mL stop buffer, which results in 10 nM probe and 70 nM GST-GRP. 20 μL of the stop/detector mix is added to each well to stop the reaction. The plates are read after 30-90 minutes keeping the red probe solutions dark. For the zero time point, stop/detector mix is added to the enzyme just before adding substrate. For an extra control, stop/detector mix is added to buffer (no enzyme) and substrate or to just buffer (no substrate). […] The recommended reaction has 0.06 μL per 20 μL (0.015 μg/20 μL) or 0.01125 μg/15 μL or 0.75 μg/mL.
Plates are read on machines with filters for TAMRA. The units are mP with no enzyme controls reading app 190-220 mP units. Fully active enzyme reduces fluorescence polarization down to 70-100 mP after 30 minutes. An active compound raises the mP values halfway to control or to 120-150 mP units.

Sequence of PI3K-gamma (P48736 whole entry, species assumed): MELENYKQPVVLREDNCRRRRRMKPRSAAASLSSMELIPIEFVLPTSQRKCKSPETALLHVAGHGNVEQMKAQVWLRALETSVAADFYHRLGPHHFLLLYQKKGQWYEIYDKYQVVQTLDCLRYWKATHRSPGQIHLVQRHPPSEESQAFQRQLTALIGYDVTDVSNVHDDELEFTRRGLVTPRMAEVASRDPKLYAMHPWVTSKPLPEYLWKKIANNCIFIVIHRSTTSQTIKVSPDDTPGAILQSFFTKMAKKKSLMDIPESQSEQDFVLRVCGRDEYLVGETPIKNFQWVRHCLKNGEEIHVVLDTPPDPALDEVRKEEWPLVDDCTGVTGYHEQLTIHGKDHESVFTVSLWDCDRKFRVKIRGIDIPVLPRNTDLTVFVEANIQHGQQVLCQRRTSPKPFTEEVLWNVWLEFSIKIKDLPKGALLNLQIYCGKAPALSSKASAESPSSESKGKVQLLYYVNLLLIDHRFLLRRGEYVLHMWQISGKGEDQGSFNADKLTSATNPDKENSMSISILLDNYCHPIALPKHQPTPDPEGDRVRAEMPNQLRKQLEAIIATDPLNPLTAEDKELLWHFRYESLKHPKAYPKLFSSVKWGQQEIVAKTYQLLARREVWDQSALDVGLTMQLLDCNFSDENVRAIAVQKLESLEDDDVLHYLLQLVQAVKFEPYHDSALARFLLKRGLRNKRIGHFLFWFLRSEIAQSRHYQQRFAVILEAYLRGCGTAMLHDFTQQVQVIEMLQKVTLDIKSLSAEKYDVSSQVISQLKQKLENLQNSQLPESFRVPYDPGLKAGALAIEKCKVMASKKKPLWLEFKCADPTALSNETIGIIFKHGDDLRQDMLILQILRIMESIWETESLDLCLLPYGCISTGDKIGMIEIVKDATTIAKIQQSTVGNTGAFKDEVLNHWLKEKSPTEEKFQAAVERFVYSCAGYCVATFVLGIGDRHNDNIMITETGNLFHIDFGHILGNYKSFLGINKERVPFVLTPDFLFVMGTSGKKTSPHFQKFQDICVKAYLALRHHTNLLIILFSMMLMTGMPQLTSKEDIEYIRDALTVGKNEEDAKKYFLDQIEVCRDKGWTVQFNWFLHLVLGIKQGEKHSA
Sequence of PI3K-alpha (P42336 whole entry, species assumed): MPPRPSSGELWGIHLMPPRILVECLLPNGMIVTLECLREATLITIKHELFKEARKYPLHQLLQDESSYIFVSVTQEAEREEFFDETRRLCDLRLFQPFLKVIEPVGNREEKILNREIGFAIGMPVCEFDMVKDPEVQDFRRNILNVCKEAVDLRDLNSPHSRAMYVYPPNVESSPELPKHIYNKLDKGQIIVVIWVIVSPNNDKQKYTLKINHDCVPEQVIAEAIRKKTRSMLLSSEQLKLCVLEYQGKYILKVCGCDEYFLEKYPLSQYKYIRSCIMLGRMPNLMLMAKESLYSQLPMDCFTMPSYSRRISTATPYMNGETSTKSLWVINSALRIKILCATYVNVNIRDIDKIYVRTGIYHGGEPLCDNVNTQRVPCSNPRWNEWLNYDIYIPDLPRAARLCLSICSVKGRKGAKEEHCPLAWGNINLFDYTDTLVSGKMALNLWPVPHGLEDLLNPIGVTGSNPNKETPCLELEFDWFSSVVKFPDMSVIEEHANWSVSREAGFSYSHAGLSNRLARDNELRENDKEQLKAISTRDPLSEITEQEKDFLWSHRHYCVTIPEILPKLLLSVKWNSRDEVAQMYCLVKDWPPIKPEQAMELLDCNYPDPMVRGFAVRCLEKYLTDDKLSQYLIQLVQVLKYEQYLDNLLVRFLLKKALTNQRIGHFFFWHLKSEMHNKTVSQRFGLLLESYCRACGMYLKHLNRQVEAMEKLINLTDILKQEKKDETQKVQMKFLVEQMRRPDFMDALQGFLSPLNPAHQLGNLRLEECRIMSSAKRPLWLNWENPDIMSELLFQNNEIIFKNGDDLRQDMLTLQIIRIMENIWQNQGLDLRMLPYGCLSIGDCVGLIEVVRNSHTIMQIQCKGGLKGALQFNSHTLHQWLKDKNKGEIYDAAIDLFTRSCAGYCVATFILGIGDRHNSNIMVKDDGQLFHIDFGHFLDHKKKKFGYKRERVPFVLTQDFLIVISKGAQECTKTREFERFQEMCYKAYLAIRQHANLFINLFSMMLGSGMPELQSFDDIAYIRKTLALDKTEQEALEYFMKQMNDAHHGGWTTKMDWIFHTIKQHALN
Sequence of PI3K-alpha (P27986 whole entry partner, species assumed): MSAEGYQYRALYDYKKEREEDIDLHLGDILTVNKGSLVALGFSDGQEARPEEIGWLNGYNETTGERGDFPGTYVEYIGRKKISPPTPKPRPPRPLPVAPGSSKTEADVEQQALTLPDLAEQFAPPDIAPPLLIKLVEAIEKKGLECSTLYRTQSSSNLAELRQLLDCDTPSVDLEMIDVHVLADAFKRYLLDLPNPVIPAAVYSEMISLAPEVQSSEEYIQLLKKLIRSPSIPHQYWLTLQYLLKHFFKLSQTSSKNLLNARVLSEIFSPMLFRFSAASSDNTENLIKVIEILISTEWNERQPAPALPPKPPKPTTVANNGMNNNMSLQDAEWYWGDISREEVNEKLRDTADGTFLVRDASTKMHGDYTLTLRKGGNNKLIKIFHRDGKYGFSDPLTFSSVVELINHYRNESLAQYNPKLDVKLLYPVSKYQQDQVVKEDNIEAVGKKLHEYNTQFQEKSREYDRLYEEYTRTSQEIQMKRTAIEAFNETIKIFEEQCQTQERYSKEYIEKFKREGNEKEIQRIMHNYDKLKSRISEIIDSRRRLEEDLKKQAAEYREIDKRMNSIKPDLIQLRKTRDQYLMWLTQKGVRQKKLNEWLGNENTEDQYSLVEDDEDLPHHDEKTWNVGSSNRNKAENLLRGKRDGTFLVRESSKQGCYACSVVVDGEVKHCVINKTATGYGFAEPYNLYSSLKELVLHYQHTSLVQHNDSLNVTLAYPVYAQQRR
Sequence of mTOR (P42345 1360-2549 limits assumed): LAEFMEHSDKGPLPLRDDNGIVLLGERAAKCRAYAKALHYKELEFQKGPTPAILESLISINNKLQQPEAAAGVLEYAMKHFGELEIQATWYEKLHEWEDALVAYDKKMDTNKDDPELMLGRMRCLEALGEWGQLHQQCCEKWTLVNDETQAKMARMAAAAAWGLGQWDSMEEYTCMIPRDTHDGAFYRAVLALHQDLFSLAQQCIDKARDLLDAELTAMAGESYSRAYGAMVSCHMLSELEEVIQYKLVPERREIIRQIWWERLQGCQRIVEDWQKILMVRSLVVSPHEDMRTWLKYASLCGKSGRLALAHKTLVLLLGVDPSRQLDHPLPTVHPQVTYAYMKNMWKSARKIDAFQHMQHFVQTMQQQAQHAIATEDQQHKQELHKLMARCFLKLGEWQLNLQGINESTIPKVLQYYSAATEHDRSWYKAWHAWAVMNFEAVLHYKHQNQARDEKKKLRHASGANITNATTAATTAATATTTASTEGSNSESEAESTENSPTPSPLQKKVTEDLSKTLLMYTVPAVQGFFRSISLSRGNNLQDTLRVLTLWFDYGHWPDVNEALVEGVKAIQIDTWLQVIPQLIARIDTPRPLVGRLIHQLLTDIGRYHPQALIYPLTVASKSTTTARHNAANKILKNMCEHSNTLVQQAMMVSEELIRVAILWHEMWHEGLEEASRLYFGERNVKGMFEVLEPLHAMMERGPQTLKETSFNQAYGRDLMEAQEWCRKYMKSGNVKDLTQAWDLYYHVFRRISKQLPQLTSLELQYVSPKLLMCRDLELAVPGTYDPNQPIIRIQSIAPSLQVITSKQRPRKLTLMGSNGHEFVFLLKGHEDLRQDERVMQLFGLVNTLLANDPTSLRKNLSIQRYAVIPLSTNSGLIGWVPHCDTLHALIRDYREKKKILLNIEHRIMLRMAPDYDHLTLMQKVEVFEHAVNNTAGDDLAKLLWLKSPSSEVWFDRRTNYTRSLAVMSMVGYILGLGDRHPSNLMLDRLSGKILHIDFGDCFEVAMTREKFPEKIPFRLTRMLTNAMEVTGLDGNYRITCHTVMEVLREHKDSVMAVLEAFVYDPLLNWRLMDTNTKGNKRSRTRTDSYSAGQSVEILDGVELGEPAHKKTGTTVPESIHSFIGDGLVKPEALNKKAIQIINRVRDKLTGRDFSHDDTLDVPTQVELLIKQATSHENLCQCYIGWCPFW

For `O=C(Nc1ccncc1)Nc1ccc(-c2nc(N3C4CCC3COC4)cc(N3C[C@@H]4C[C@H]3CO4)n2)cc1` [1-(4-{4-[(1S,4S)-2-oxa-5-azabicyclo[2.2.1]hept-5-yl]-6-(3-oxa-8-azabicyclo[3.2.1]oct-8-yl)pyrimidin-2-yl}phenyl)-3-pyridin-4-ylurea], the IC50 in the assay with LNCap was 30 nM; on PI3K-alpha it was 2810 nM; against mTOR, 3.05 nM; in the assay with MDA468, 75 nM; at PI3K-gamma, at least 10 µM.

As to `C[C@@H]1COCCN1c1cc(N2C3CCC2COC3)nc(-c2ccc(NC(=O)Nc3ccc(CN4CCN(C)CC4)cc3)cc2)n1` [1-(4-{4-[(3R)-3-methylmorpholin-4-yl]-6-(3-oxa-8-azabicyclo[3.2.1]oct-8-yl)pyrimidin-2-yl}phenyl)-3-{4-[(4-methylpiperazin-1-yl)methyl]phenyl}urea], the half-maximal inhibitory concentration (IC50) in the assay with LNCap came out at 6 nM; on PI3K-alpha, 1300 nM; on mTOR it was 1.2 nM; in the assay on MDA468, 12 nM; on PI3K-gamma, 8.48 µM.

In the case of `C[C@@H]1COCCN1c1cc(N2C3CCC2COC3)nc(-c2ccc(NC(=O)Nc3ccc(C(=O)N4CCN(C)CC4)cc3)cc2)n1` [1-(4-{4-[(3R)-3-methylmorpholin-4-yl]-6-(3-oxa-8-azabicyclo[3.2.1]oct-8-yl)pyrimidin-2-yl}phenyl)-3-{4-[(4-methylpiperazin-1-yl)carbonyl]phenyl}urea], the IC50 is at most 0.8 nM in the assay on LNCap; 78 nM on PI3K-alpha; 0.75 nM against mTOR; 0.8 nM with MDA468; 1.13 µM at PI3K-gamma.

Consider `O=C(Nc1ccc(-c2nc(C3CCOCC3)cc(N3C4CCC3COC4)n2)cc1)Nc1cccnc1` [1-{4-[4-(3-oxa-8-azabicyclo[3.2.1]oct-8-yl)-6-(tetrahydro-2H-pyran-4-yl)pyrimidin-2-yl]phenyl}-3-pyridin-3-ylurea], for which the IC50 was 4 nM in the assay with LNCap; 2690 nM on PI3K-alpha; 0.32 nM against mTOR; 200 nM in the assay with MDA468; at least 10 µM at PI3K-gamma.

Consider `CN1CCN(C(=O)c2ccc(NC(=O)Nc3ccc(-c4nc(C5CCOCC5)cc(N5C6CCC5COC6)n4)cc3)cc2)CC1` [1-{4-[(4-methylpiperazin-1-yl)carbonyl]phenyl}-3-{4-[4-(3-oxa-8-azabicyclo[3.2.1]oct-8-yl)-6-(tetrahydro-2H-pyran-4-yl)pyrimidin-2-yl]phenyl}urea], for which the half-maximal inhibitory concentration (IC50) in the assay on LNCap is at most 0.8 nM; on PI3K-alpha, 230 nM; at mTOR, 0.44 nM; in the assay on MDA468 it was 0.8 nM; on PI3K-gamma, 3.05 µM.

With `CN1CCN(c2ccc(NC(=O)Nc3ccc(-c4nc(N5C6CCC5COC6)cc(N5C[C@H]6C[C@@H]5CO6)n4)cc3)cc2)CC1` [1-[4-(4-methylpiperazin-1-yl)phenyl]-3-(4-{4-[(1R,4R)-2-oxa-5-azabicyclo[2.2.1]hept-5-yl]-6-(3-oxa-8-azabicyclo[3.2.1]oct-8-yl)pyrimidin-2-yl}phenyl)urea], the IC50 with LNCap turned out to be 40 nM; on PI3K-alpha it was 2090 nM; against mTOR it was 7.55 nM; in the assay with MDA468, 48 nM; at PI3K-gamma it was 8.71 µM.

As to `CN1CCN(c2ccc(NC(=O)Nc3ccc(-c4nc(N5C6CCC5COC6)c(Cl)c(N5C6CCC5COC6)n4)cc3)cc2)CC1` [1-[4-(5-chloro-4,6-di-3-oxa-8-azabicyclo[3.2.1]oct-8-ylpyrimidin-2-yl)phenyl]-3-[4-(4-methylpiperazin-1-yl)phenyl]urea], the 50% inhibitory concentration (IC50) is 65 nM in the assay on LNCap; 998 nM on PI3K-alpha; 0.505 nM on mTOR; 210 nM in the assay on MDA468; 1.02 µM on PI3K-gamma.

With `C[C@@H]1CN(c2cc(N3C4CCC3COC4)nc(-c3ccc(NC(=O)Nc4ccc(N5CCN(C)CC5)cc4)cc3)n2)C[C@H](C)O1` [1-(4-{4-[(2R,6S)-2,6-dimethylmorpholin-4-yl]-6-(3-oxa-8-azabicyclo[3.2.1]oct-8-yl)pyrimidin-2-yl}phenyl)-3-[4-(4-methylpiperazin-1-yl)phenyl]urea], the IC50 was found to be 30 nM in the assay on LNCap; 1550 nM on PI3K-alpha; 4.4 nM against mTOR; 130 nM in the assay with MDA468; 6.44 µM at PI3K-gamma.

In the case of `CN1CCN(Cc2ccc(NC(=O)Nc3ccc(-c4nc(N5C6CCC5COC6)cc(N5C[C@H]6C[C@@H]5CO6)n4)cc3)cc2)CC1` [1-{4-[(4-methylpiperazin-1-yl)methyl]phenyl}-3-(4-{4-[(1R,4R)-2-oxa-5-azabicyclo[2.2.1]hept-5-yl]-6-(3-oxa-8-azabicyclo[3.2.1]oct-8-yl)pyrimidin-2-yl}phenyl)urea], the IC50 in the assay on LNCap was determined as 180 nM; on PI3K-alpha, 1190 nM; against mTOR it was 9.9 nM; in the assay with MDA468, 190 nM; at PI3K-gamma it was 7.59 µM.

Take `C[C@@H]1CN(c2cc(N3C4CCC3COC4)nc(-c3ccc(NC(=O)Nc4ccncc4)cc3)n2)C[C@H](C)O1` [1-(4-{4-[(2R,6S)-2,6-dimethylmorpholin-4-yl]-6-(3-oxa-8-azabicyclo[3.2.1]oct-8-yl)pyrimidin-2-yl}phenyl)-3-pyridin-4-ylurea]: the IC50 in the assay on LNCap turned out to be 50 nM; on PI3K-alpha, 1340 nM; against mTOR, 2.6 nM; with MDA468, 280 nM; on PI3K-gamma it was 5.37 µM.

Consider `CC(C)Nc1cc(N2C3CCC2COC3)nc(-c2ccc(NC(=O)Nc3cccnc3)cc2)n1` [1-(4-{4-[(1-methylethyl)amino]-6-(3-oxa-8-azabicyclo[3.2.1]oct-8-yl)pyrimidin-2-yl}phenyl)-3-pyridin-3-ylurea], for which the IC50 is 45 nM with LNCap; 4350 nM on PI3K-alpha; 1.1 nM on mTOR; 100 nM with MDA468; at least 10 µM on PI3K-gamma.

Turning to `CN1CCN(Cc2ccc(NC(=O)Nc3ccc(-c4nc(NCCS(C)(=O)=O)cc(N5C6CCC5COC6)n4)cc3)cc2)CC1` [1-{4-[(4-methylpiperazin-1-yl)methyl]phenyl}-3-{4-[4-{[2-(methylsulfonyl)ethyl]amino}-6-(3-oxa-8-azabicyclo[3.2.1]oct-8-yl)pyrimidin-2-yl]phenyl}urea], the concentration for half-maximal inhibition (IC50) in the assay on LNCap was 400 nM; on PI3K-alpha it was 3980 nM; at mTOR it was 17.5 nM; in the assay on MDA468, 500 nM; on PI3K-gamma, 10.8 µM.

Consider `C[C@@H]1COCCN1c1cc(N2C3CCC2COC3)nc(-c2ccc(NC(=O)Nc3ccc(OCCN(C)C)cc3)cc2)n1` [1-{4-[2-(dimethylamino)ethoxy]phenyl}-3-(4-{4-[(3R)-3-methylmorpholin-4-yl]-6-(3-oxa-8-azabicyclo[3.2.1]oct-8-yl)pyrimidin-2-yl}phenyl)urea], for which the IC50 was determined as 4 nM with LNCap; 853 nM at PI3K-alpha; 1.55 nM at mTOR; 13 nM in the assay on MDA468; 6.47 µM on PI3K-gamma.

Consider `CN1CCN(c2ccc(NC(=O)Nc3ccc(-c4nc(NC5CCOCC5)cc(N5C6CCC5COC6)n4)cc3)cc2)CC1` [1-[4-(4-methylpiperazin-1-yl)phenyl]-3-{4-[4-(3-oxa-8-azabicyclo[3.2.1]oct-8-yl)-6-(tetrahydro-2H-pyran-4-ylamino)pyrimidin-2-yl]phenyl}urea], for which the IC50 in the assay with LNCap turned out to be 7 nM; at PI3K-alpha, 2260 nM; at mTOR, 7.5 nM; in the assay with MDA468, 10 nM; at PI3K-gamma, 9.23 µM.
